pIC50, pKd: −log10 of the molar value. Like-named read-outs stand apart in the source and are kept apart here.
Assays:
[1] = target: T1, AtOASS (O-acetyl serine sulfhydrylase from Arabidopsis thaliana) (Arabidopsis thaliana, UniProt P47998); test: Isothermal titration calorimetry (ITC) binding to OASS; settings: OASS titrated into compound in ITC cell; single binding model
T1 construct: GST (N, cleaved yes); made in house; host or cells: E. coli Rosetta (DE3)
Excerpt: To evaluate the ability of the molecules to bind AtOASS (O-acetyl serine sulfhydrylase from Arabidopsis thaliana), the protein was placed in the ITC syringe and was titrated with the molecules that were placed in the ITC cell (see Examples section below). The direct dissociation binding constant (Kd) was then extracted from the binding curve using a single binding model, wherein a low Kd value corresponds to a stronger binding affinity.
To evaluate the binding of the small molecules to the enzyme OASS, the purified protein was placed in a 6-8 MWCO dialysis bag in 30 mM phosphate buffer, 30 mM NaCl, 1 mM TCEP, and 5% dimethyl sulfoxide. Sequential buffer exchange dialyses were executed for 12 hours each at 4° C. until dilution of >10,000 was achieved. Before the execution of the ITC binding experiment, the OASS was placed in the ITC syringe at a concentration of 400 μM and each of the small molecules was dissolved in the same dialysis buffer to a final concentration of 40 μM in the ITC cell. ITC experiments were conducted by titrating the OASS to the compounds in the cell. The ITC binding constant was evaluated using the build-in analysis software.
The designed de-novo herbicidal compounds were synthesized and evaluated for their in vitro and in planta activity. After dissolving the molecules to a stock of 50 mM in DMSO, binding and competition with the SAT-derived peptides were evaluated using ITC and FP. ITC measures the direct heat change occurring due to the interaction of a pair of molecules. ITC has certain advantages, such as the capability to detect a relatively broad range of binding affinities, being a label-free method, and providing a wide set of interaction parameters, such as affinity, stoichiometry, enthalpy, and entropy of binding. To evaluate the ability of the molecules to bind AtOASS, the protein was placed in the ITC syringe and was titrated with the molecules that were placed in the ITC cell. The direct dissociation binding constant (Kd) was then extracted from the binding curve using a single binding model. Two consecutive experiments were combined using the built in ITC module to enable better quantification. A low Kd value corresponds to a stronger binding affinity.

[2] = target: T2, OASS-SAT complex (AtOASS with SAT-derived peptide) (Arabidopsis thaliana, UniProt P47998); test: Fluorescence polarization (FP) competition with FITC-labeled SAT-derived peptide bound to OASS; type: binding; settings: competition with FITC-SAT peptide 200 nM, OASS 2.2 μM; for pIC50: single site inhibition model
T2 construct: GST (N, cleaved yes); made in house; host or cells: E. coli Rosetta (DE3)
T2 sequence (P47998 whole entry, one chain of several): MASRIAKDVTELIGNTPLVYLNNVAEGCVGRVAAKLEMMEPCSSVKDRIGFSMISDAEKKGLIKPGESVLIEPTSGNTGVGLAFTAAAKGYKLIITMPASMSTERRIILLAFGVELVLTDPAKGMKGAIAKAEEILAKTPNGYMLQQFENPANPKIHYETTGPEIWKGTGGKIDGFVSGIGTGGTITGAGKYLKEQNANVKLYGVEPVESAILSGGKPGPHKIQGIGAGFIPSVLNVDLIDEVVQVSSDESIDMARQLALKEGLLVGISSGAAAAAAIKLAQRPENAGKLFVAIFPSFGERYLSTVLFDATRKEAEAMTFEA
Procedure: Molecules were also tested for their ability to compete with the OASS binding to the SAT-derived peptide via a fluorescence polarization (FP) competition assay wherein the N-terminus labeled peptide was incubated with the AtOASS (see Examples section below). High FP values correspond to the peptide-bound state (low molecule concentrations) and low FP values correspond to the peptide-free state (low FP values). To extract the IC50, the FP data were fitted to a single site inhibition model in PRISM by GraphPad Software. The corresponding IC50 values were extracted, whereas low IC50 values correspond to molecule that better competes with the peptide binding to AtOASS. Fluorescence polarization (FP) measurements were made on samples arrayed in 96-well plates by using BioTek H1 Synergy instrument equipped with FP module. […] The peptide in a concentration of 200 nM was incubated with OASS at a concentration of 2.2 μM in each well. Variable concentrations of each molecule starting from 100 μM down to 0.048 μM were added to evaluate the ability of each molecule to compete off the FITC labeled peptide bound to OASS. Fluorescence experiments were executed with an Em/Exc wavelengths of 480/520 nm. All measurements were done in triplicate. Experimental polarization data from simple and competitive binding experiments were fitted using GraphPad Prism, with error bars representing SD. Molecules were also tested for their ability to compete with the OASS binding to the SAT-derived peptide via a fluorescence polarization (FP) competition assay. The N-terminus labeled peptide was incubated with the AtOASS in each of the wells in a 96-well plate. Various concentrations of the molecules were added and the FP values were recorded. High FP values correspond to the peptide-bound state (low molecule concentrations) and low FP values correspond to the peptide-free state (low FP values). To extract the IC50, the FP data were fitted to a single site inhibition model in graphpad prism. The corresponding IC50 values were extracted. Low IC50 values correspond to molecule that better competes with the peptide binding to AtOASS.

Arabidopsis thaliana [3] = test: Root elongation in plates (in planta root elongation assay); type: in vivo; settings: 168 h, A. thaliana on MS medium plates, 7 days, read-out: Root-growth inhibition %
Procedure: 6-well plates were prepared in a biological hood with sterile half Murashige and Skoog mineral medium (MS; Duchefa, Haarlem, Netherlands) containing 1% sucrose (w/v), pH 5.8. Tested molecules were dissolved in 50 mM DMSO and diluted to various concentrations 1,000-fold greater than the final desired concentration the MS medium maintaining a final concentration of 0.1% DMSO. MS medium with 0.1% DMSO was used as a negative control. After 7 days the plates were scanned and the root length was calculated using the imageJ software. […] Further sterilization was done by washing the seeds with 50% hypochlorite and 0.2% Triton x-100 for 10 minutes followed by five cycles of washing with sterile water. Six seeds were placed in each well, and the plates were covered and sealed with parafilm. Plates were placed vertically at 4° C. for two days and then transferred to a growth chamber for seven days (22-24° C.) at day/light cycles of 16/8 hours. Following the in vitro evaluation, selected molecules were tested for their ability to inhibit A. thaliana root elongation on agar plates. Seeds were plated on medium containing the molecules dissolved in the indicated concentrations and root length was measured after 6 or 7 days when the root in the non-treated plate reached the end of the well.

Amaranthus palmeri = test: Pre-emergence assay in pots; type: in vivo; settings: pots sprayed with 2 ml, 5 mM, monitored 21 days
Procedure: (§1) 7×7 cm pots were prepared with 20% soil and 80% sand. Trifolium alexandrium (16 seeds), Lolium rigidum (25 seeds), Solanum nigrum (25 seeds), Amaranthus palmeri (40 seeds) or Sinapis arvensis (12 seeds) were sowed and 2 cm of strained sand was used to cover the seeds. The pots were placed in the growth room under a lighting regime of 16 hours of light and 8 hours in the dark at 23° C. The day after (except for the Solanum and Amaranthus 4-5 days after), the pots were sprayed in a chemical hood at a 45° angle with 2 ml spray solution containing 1:10 acetone or phosphate buffer dissolved active ingredient in tap water to a final concentration of 5 mM. Every 2-3 days the pots were irrigated with tap water.
(§2) Pre-emergence herbicidal activity was determined by monitoring plant growth in pots. Molecules were dissolved at the indicated concentrations below and volume of 2 ml was sprayed onto the soil, and plant growth was monitored for 21 days.

Arabidopsis thaliana [4] = test: L-cysteine recovery root elongation assay; type: in vivo; settings: for pIC50: Arabidopsis thaliana, read-out: IC50 of A. thaliana growth inhibition
Procedure: For the L-cysteine recovery root elongation assay, 6-well plates were prepared in a biological hood with sterile half Murashige and Skoog mineral medium (MS; Duchefa, Haarlem, Netherlands) containing 1% sucrose (w/v), pH 5.8. A stock of 10 mM L-cysteine in DDW was prepared and diluted to a final concentration of 0.03 mM into the MS medium in the presence of 25 to 1.56 μM of PJL 109. The MS medium maintained a final concentration of 0.1% DMSO. MS medium with 0.1% DMSO and 0.03 mM L-cysteine was used as a negative control. After 7 days the plates were scanned and the root length was calculated using the imageJ software.
Arabidopsis thaliana seeds were washed with 70% ethanol for 1 minute and then with sterile water. Further sterilization was done by washing the seeds with 50% hypochlorite and 0.2% Triton x-100 for 10 minutes followed by five cycles of washing with sterile water. Six seeds were placed in each well, and the plates were covered and sealed with parafilm. Plates were placed vertically at 4° C. for two days and then transferred to a growth chamber for seven days (22-24° C.) at day/light cycles of 16/8 hours.

Solanum nigrum = test: Pre-emergence assay in pots; type: in vivo; settings: pots sprayed with 2 ml, 5 mM, monitored 21 days
Procedure: as §1, §2

Lolium rigidum = test: Pre-emergence assay in pots; type: in vivo; settings: pots sprayed with 2 ml, 5 mM, monitored 21 days
Procedure: as §1, §2

Sinapis arvensis = test: Pre-emergence assay in pots; type: in vivo; settings: pots sprayed with 2 ml, 5 mM, monitored 21 days
Procedure: as §1, §2

Trifolium alexandrium = test: Pre-emergence assay in pots; type: in vivo; settings: pots sprayed with 2 ml, 5 mM, monitored 21 days
Procedure: as §1, §2

T1 sequence (P47998 whole entry): as the sequence (P47998 whole entry, one chain of several) above

SMILES	pKd [1]	FP % inhibition [2]	pIC50 [2]	inhibition at 50 µM (Arabidopsis thaliana [3])	Pre-emergence assay Germination inhibition on (%) (Amaranthus palmeri)	Pre-emergence assay Growth inhibition on (%) (Amaranthus palmeri)	effect of added cysteine on the inhibition by the compound (Arabidopsis thaliana [4]; 0.03 mM L-cysteine on agar plates, dose-response, result in words)	pIC50 (Arabidopsis thaliana [4]; 0 mM L-cysteine (no external addition of cysteine))	pIC50 (Arabidopsis thaliana [4]; 0.03 mM L-cysteine in the medium)	Pre-emergence assay Germination inhibition on (%) (Solanum nigrum)	Pre-emergence assay Growth inhibition on (%) (Solanum nigrum)	Pre-emergence assay Germination inhibition on (%) (Lolium rigidum)	Pre-emergence assay Growth inhibition on (%) (Lolium rigidum)	Pre-emergence assay Germination inhibition on (%) (Sinapis arvensis)	Pre-emergence assay Growth inhibition on (%) (Sinapis arvensis)	Pre-emergence assay Germination inhibition on (%) (Trifolium alexandrium)	Pre-emergence assay Growth inhibition on (%) (Trifolium alexandrium)
O=C(O)c1cc(F)ccc1NS(=O)(=O)c1cnc(-c2ccccc2)s1 [PJL-47]	5.22	16%	4.17	88%	66%	20%											
O=C(O)c1ccccc1-c1ccccc1C(=O)Nc1nc(-c2ccc(Cl)cc2Cl)cs1 [PJL-109]	7.15	48%	5.27	89%			partially reverses the germination inhibition effect	5.77	5.31	63%	0%						
O=C(O)c1ccccc1-c1ocnc1C(=O)Nc1nc(-c2ccc(Cl)cc2Cl)cs1 [PJL-117]		10%	3.61	100%								0%	60%	90%	80%		
COc1ccc(-c2csc(NC(=O)c3ccccc3-c3ccccc3C(=O)O)n2)c(Cl)c1 [PJL-116]	6.30	41%	5.44	92%												75%	80%
COc1ccc(C(=O)O)c(NS(=O)(=O)c2cnc(-c3ccc(F)cc3)s2)c1 [PJL-79]	5.15	18%	4.26	97%										95%	90%		
COc1ccc(-c2csc(NC(=O)c3ccccc3-c3ccccc3C(=O)O)n2)cc1 [PJL-61]	6.40	43%	5.33	95%	33%	0%										70%	60%

Source: patent US20250008959A1, “HERBICIDES AND USE THEREOF” (Projini Agchem LTD, priority 2021, published 2025)
